According to patent US20110207764A1, “CYCLOPOLYSACCHARIDE COMPOSITIONS” (priority 2010, published 2011):

Assay: Concentration of active ingredient dissolved in 60% (w/w) aqueous SBECD after filtration, determined by HPLC
Type: physicochemical
Settings: 0.2 micrometer filter
Experimental: (§1) 200 mg of coumarin were added to 4 g of 60% (w/w) aqueous SBECD, and the mixture was mixed at 34° C. for 48 hours, and then filtered through a 0.2 micrometer nylon filter to produce 44.3 mg/g coumarin solution, as determined by HPLC. 40 mg of cetylpiridinium chloride were added to the solution and mixed until completely dissolved, and the composition was filtered.
as §1, with “400” for “200”, “ibuprofen” for “coumarin”, “78.1” for “44.3”, “60” for “40”, “triethanoloamine” for “cetylpiridinium chloride”
as §1, with “2” for “200”, “paclitaxel” for “coumarin”, “0.4” for “44.3”, “heptakis(6-guanidino-6-deoxy)-beta-cyclodextrin” for “cetylpiridinium chloride”
200 mg of diindolylmethane were added to 4 g of 60% (w/w) aqueous SBECD, and the mixture was heated in boiling water bath for 1 hour, then kept at room temperature for 24 hours. The mixture was then filtered through a 0.2 micrometer nylon filter to produce 40.3 mg/g diindolylmethane solution, as determined by HPLC. 24 mg of octakis(6-guanidino-6-deoxy)-gamma-cyclodextrin were added to the solution and mixed until completely dissolved, and the composition was filtered.
10 mg of Semaxanib (3-((3,5-dimethyl-1H-pyrrol-2-yl)methylene)indolin-2-one) were added to 4 g of 60% (w/w) aqueous SBECD, and the mixture was heated in boiling water bath for 1 hour, then kept at room temperature for 24 hours. The mixture was then filtered through a 0.2 micrometer nylon filter to produce 1.3 mg/g semaxanib solution, as determined by HPLC. 80 mg of PI2080 (polyethyleneimine 2000 conjugated with PEG 8000) were added and mixed until completely dissolved, and the composition was filtered.
40 mg of xanthone (9H-xanthen-9-one) were added to 4 g of 60% (w/w) aqueous SBECD, and the mixture was heated in boiling water bath for 1 hour, then kept at room temperature for 24 hours. The mixture was filtered through a 0.2 micrometer nylon filter to produce 8.2 mg/g xanthone solution, as determined by HPLC. 120 mg of low molecular weight protamine were added and mixed until completely dissolved, and the composition was filtered.
100 mg of carvedilol were added to 4 g of 60% (w/w) aqueous SBECD, and the mixture was heated in boiling water bath for 1 hour, then kept at room temperature for 24 hours. The mixture was filtered through a 0.2 micrometer nylon filter to produce 22.6 mg/g carvedilol solution, as determined by HPLC. 120 mg of hexakis(6-amino-6-deoxy)-alpha-cyclodextrin were dissolved in 2 mL water, and the two solutions mixed until completely homogenous. The product solution was freeze-dried to form an amorphous solid.
10 mg of talidomid were added to 4 g of 60% (w/w) aqueous SBECD, and the mixture was mixed at 34° C. for 48 hours. The mixture was filtered through a 0.2 micrometer nylon filter to produce 1.7 mg/g talidomid solution, as determined by HPLC. 120 mg of heptakis(6-amino-6-deoxy)-beta-cyclodextrin were added and mixed until completely dissolved, and the composition was filtered.
2 mg of SN-38 (7-Ethyl-10-hydroxy-camptothecin) were added to 4 g of 60% (w/w) aqueous SBECD, and the mixture was heated in boiling water bath for 1 hour, then kept at room temperature for 24 hours. The mixture was filtered through a 0.2 micrometer nylon filter to produce 0.39 mg/g SN-38 solution, as determined by HPLC. A solution of 60 mg of heptakis(6-amino-6-deoxy)-beta-cyclodextrin in 2 mL water was added to the SN-38 solution, and mixed until the resulting solution was completely homogenous. The composition was filtered. […]

[1] = boiling water bath 1 hour, room temperature 24 hours

Compound	concentration of active ingredient in filtered solution [1] [mg/g]	concentration of active ingredient in filtered solution (mixed at 34° C. for 48 hours) [mg/g]
CCc1c2c(nc3ccc(O)cc13)-c1cc3c(c(=O)n1C2)COC(=O)[C@]3(O)CC [SN-38, 7-Ethyl-10-hydroxy-camptothecin]	0.39	
O=c1ccc2ccccc2o1 [coumarin]		44.3
CC(=O)[C@@]1(O)CC[C@H]2[C@@H]3C=C(C)C4=CC(=O)CC[C@]4(C)[C@H]3CC[C@@]21C [megesterol]	4.3	
O=c1c2ccccc2oc2ccccc12 [xanthone, 9H-xanthen-9-one]	8.2	

More lines, now with the values ahead:

concentration of active ingredient in filtered solution [1] [mg/g]	concentration of active ingredient in filtered solution (mixed at 34° C. for 48 hours) [mg/g]	Compound
22.6		COc1ccccc1OCCNCC(O)COc1cccc2[nH]c3ccccc3c12 (stereo not drawn) [carvedilol]
	78.1	CC(C)Cc1ccc(C(C)C(=O)O)cc1 (stereo not drawn) [ibuprofen]
	0.4	CC(=O)O[C@H]1C(=O)[C@@]2(C)[C@H]([C@H](OC(=O)c3ccccc3)[C@]3(O)C[C@H](OC(=O)[C@H](O)[C@@H](NC(=O)c4ccccc4)c4ccccc4)C(C)=C1C3(C)C)[C@]1(OC(C)=O)CO[C@@H]1C[C@@H]2O [paclitaxel]
1.3		Cc1cc(C)c(C=C2C(=O)Nc3ccccc32)[nH]1 [semaxanib, 3-((3,5-dimethyl-1H-pyrrol-2-yl)methylene)indolin-2-one]
	1.7	O=C1CCC(N2C(=O)c3ccccc3C2=O)C(=O)N1 (stereo not drawn) [talidomid]
